Structures are written as SMILES.

Data set [1] concerns Beet Armyworm (Spodoptera exigua, LAPHEG). Description: Bioassay on Beet Armyworm (BAW), 128-well diet tray assay. In kind it is in vivo. The settings on record: 168 h, 50 μg/cm^2 on artificial diet, second instar larvae, 25° C., five to seven days, average of eight wells, read-out: BAW % Control (or Mortality) rating. The procedure: (§1) Bioassays on Beet Armyworm (Spodoptera exigua, LAPHEG) (“BAW”) and Cabbage Looper (Trichoplusia ni, TRIPNI) (“CL”)
(§2) Certain molecules disclosed in this document were tested against BAW and CL using procedures described in the following examples. In the reporting of the results, the “BAW & CL Rating Table” was used (See Table Section).
Bioassays on BAW were conducted using a 128-well diet tray assay. One to five second instar BAW larvae were placed in each well (3 mL) of the diet tray that had been previously filled with 1 mL of artificial diet to which 50 μg/cm^2 of the test molecule (dissolved in 50 μL of 90:10 acetone-water mixture) had been applied (to each of eight wells) and then allowed to dry. Trays were covered with a clear self-adhesive cover, vented to allow gas exchange, and held at 25° C., 14:10 light-dark for five to seven days. Percent mortality was recorded for the larvae in each well; activity in the eight wells was then averaged. The results are indicated in the table entitled “Table ABC: Biological Results” (See Table Section).

The test system of data set [2] is Cabbage Looper (Trichoplusia ni, TRIPNI). Description: Bioassay on Cabbage Looper (CL), 128-well diet tray assay. It is filed as in vivo. The settings on record: 168 h, 50 μg/cm^2 on artificial diet, second instar larvae, 25° C., five to seven days, average of eight wells, read-out: CL % Control (or Mortality) rating. On the procedure: as §1, §2
Bioassays on CL were conducted using a 128-well diet tray assay. One to five second instar CL larvae were placed in each well (3 mL) of the diet tray that had been previously filled with 1 mL of artificial diet to which 50 μg/cm^2 of the test molecule (dissolved in 50 μL of 90:10 acetone-water mixture) had been applied (to each of eight wells) and then allowed to dry. Trays were covered with a clear self-adhesive cover, vented to allow gas exchange, and held at 25° C., 14:10 light-dark for five to seven days. Percent mortality was recorded for the larvae in each well; activity in the eight wells was then averaged. The results are indicated in the table entitled “Table ABC: Biological Results” (See Table Section).

The subject of data set [3] is Yellow Fever Mosquito (Aedes aegypti, AEDSAE). It is filed as in vivo. The settings on record: 4000 ppm DMSO master solution diluted, about 1 day-old larvae, room temperature, scored after 3 days. The procedure:
Bioassays on Yellow Fever Mosquito (Aedes aegypti, AEDSAE) (“YFM”)
Certain molecules disclosed in this document were tested against YFM using procedures described in the following paragraph. In the reporting of the results, the “YFM Rating Table” was used (See Table Section).
Master plates containing 400 μg of a molecule dissolved in 100 μL of dimethyl sulfoxide (DMSO) (equivalent to a 4000 ppm solution) are used. A master plate of assembled molecules contains 15 μL per well. To this plate, 135 μL of a 90:10 water/acetone mixture is added to each well. A robot (Biomek® NXP Laboratory Automation Workstation) is programmed to dispense 15 μL aspirations from the master plate into an empty 96-well shallow plate (“daughter” plate). There are 6 reps (“daughter” plates) created per master. The created “daughter” plates are then immediately infested with YFM larvae.
The day before plates are to be treated, mosquito eggs are placed in Millipore water containing liver powder to begin hatching (4 g into 400 mL). After the “daughter” plates are created using the robot, they are infested with 220 μL of the liver powder/larval mosquito mixture (about 1 day-old larvae). After plates are infested with mosquito larvae, a non-evaporative lid is used to cover the plate to reduce drying. […] After 3 days, each well is observed and scored based on mortality. […]

Usually melting point stands for the temperature, or range, at which the solid turns liquid. Consider `Cc1ccc(C(C)C)c(N2C(=O)CS/C2=N\C(=O)Nc2ccc(CNc3ncn(-c4ccc(OC(F)(F)F)cc4)n3)cc2F)c1`, for which the melting point fell in the range of 236 to 238 °C.
On the same count and under the same terms, to `CCCc1ccc(C)cc1N1C(=O)CS/C1=N\C(=O)Nc1ccc(CN(C)c2ncn(-c3ccc(OC(F)(F)F)cc3)n2)cn1` belongs 184 °C (dec.); to `CCCc1ccc(C)cc1N1C(=O)CS/C1=N\C(=O)Nc1ccc(CN(C)c2ncn(-c3ccc(OC(F)(F)F)cc3)n2)cc1F`, 174 to 176 °C; to `COCc1ccc(C)cc1N1C(=O)CS/C1=N\C(=O)Nc1ccc(CNc2ncn(-c3ccc(OC(F)(F)F)cc3)n2)cc1F`, 205 to 207 °C.
What is called mortality is the share of the test organisms that died. Consider `CCCc1ccc(C)cc1N1C(=O)CS/C1=N\C(=O)Nc1ccc(CNc2ncn(-c3ccc(OC(F)(F)F)cc3)n2)cc1` [F3, (Z)-1-(3-(5-Methyl-2-propylphenyl)-4-oxothiazolidin-2-ylidene)-3-(4-(((1-(4-(trifluoromethoxy)phenyl)-1H-1,2,4-triazol-3-yl)amino)methyl)phenyl)urea], for which the mortality at 50 µg/cm2 in data set [1] and in data set [2] was 50 to 100% in each case. Also, in data set [3], the “YFM % Control (or Mortality) rating” value is reported as “A (80-100)”.
Take `CCCc1ccc(C)cc1N1C(=O)CS/C1=N\C(=O)Nc1ccc(CNc2ncn(-c3ccc(OC(F)(F)F)cc3)n2)cc1F` [F5, (Z)-1-(2-Fluoro-4-(((1-(4-(trifluoromethoxy)phenyl)-1H-1,2,4-triazol-3-yl)amino)methyl)phenyl)-3-(3-(5-methyl-2-propylphenyl)-4-oxothiazolidin-2-ylidene)urea]: the mortality at 50 µg/cm2 in data set [1] and in data set [2] was 50 to 100% throughout. In addition, in data set [3], the “YFM % Control (or Mortality) rating” value is given as “A (80-100)”.
Consider `Cc1ccc(C(C)C)c(N2C(=O)CS/C2=N\C(=O)Nc2ccc(NCc3ncn(-c4ccc(OC(F)(F)F)cc4)n3)cn2)c1` [F47, (Z)-1-(3-(2-isopropyl-5-methylphenyl)-4-oxothiazolidin-2-ylidene)-3-(5-(((1-(4-(trifluoromethoxy)phenyl)-1H-1,2,4-triazol-3-yl)methyl)amino)pyridin-2-yl)urea], for which the mortality at 50 µg/cm2 in data set [1] and in data set [2] was 50 to 100% throughout.

These data come from patent US9661853B2, “Molecules having pesticidal utility, and intermediates, compositions, and processes, related thereto” (Dow AgroSciences LLC, priority 2015, dated 2017).
